# How the values were obtained:
# [1] = test system: human Topoisomerase II; assay: TopoII adsorbed on AFM cantilever, fluctuation recording (drug affinity detection); type: biochemical
# Excerpt: This enzyme requires ATP to modify its 3D conformation and to act on DNA. TopoII is also the preferred target of numerous anticancerous drugs such as aclarubicin. This drug binds to TopoII, freezes its conformation and inhibits its action (15). In the first experiment, TopoII was adsorbed onto both sides of a cantilever. It was than introduced in the analysis chamber of an AFM and its laser beam was collimated on the apex of the cantilever. The reflection of the laser beam, sent to a split photo-detector, allowed detecting the fluctuations of the cantilever as depicted in FIG. 1 and, more in detail, FIG. 3,
# The experiment consisted in injecting successively an ATP depleted buffer, an ATP enriched solution and an aclarubicin+ATP rich media in the analysis chamber and by recording the resulting fluctuations of the cantilever.
# This experiment was performed using an APTES-coated AFM cantilever. The different buffers injected during experiment are: buffer (50 mM Tris-HCl (pH 8.0), 150 mM NaCl, 10 mM MgCl2, and 0.5 mM dithiothreitol), 0.02 mM ATP and 0.02 mM ATP plus 100 μM aclarubicin.
# The media used in this experiment are: buffer (50 mM Tris-HCl (pH 8.0), 150 mM NaCl, 10 mM MgCl2 and 0.5 mM dithiothreitol.), 0.02 mM ATP, 0.2 mM ATP, 2 mM ATP and again buffer.
# [2] = test system: TopoII-supercoiled DNA complexes; assay: TopoII-supercoiled DNA complexes on AFM cantilever, fluctuation recording; type: biochemical, human; settings: 0.02 mM ATP, compared to ATP free buffer or AMPPMP solution
# Description: As mentioned previously, TopoII interacts with DNA to simplify its topology. To record this reaction with our method we deposited TopoII-supercoiled DNA complexes on both sides of an AFM cantilever, as depicted in FIG. 6.
# The experiment was performed using an APTES-coated AFM cantilever. The different media injected during experiment are: buffer (50 mM Tris-HCl (pH 8.0), 150 mM NaCl, 10 mM MgCl2 and 0.5 mM dithiothreitol), 0.02 mM. AMPPNP (an ATP analogue) and 0.02 mM ATP. […] Panel B depicts the experimental set-up to follow TopoII-DNA interactions. a) DNA molecule, b) TopoII, c) AFM cantilever, d) laser beam. Panel C evidences the differences in terms of the variance.
# Here again the cantilever covered with TopoII-supercoiled DNA complexes was inserted in the analysis chamber and exposed to several consecutive liquid environments: 1) ATP free solution, 2) buffer containing a non functional ATP substitute, referred to as AMPPMP 3) ATP enriched medium. AMPPMP is a non-hydrolysable ATP analogue which inhibits TopoII activity.
# [3] = test system: Staphylococcus aureus; assay: Antibiotic sensitivity detection, non-motile bacteria on cantilever; type: cell-based; settings: exposure to ampicillin in LB; FIG. 10
# Excerpt: Later on, similar experiments were repeated using non-motile bacteria (Staphylococcus aureus) susceptible to ampicillin. […] The results of the cantilever motion RMS are depicted in FIG. 10. In this experiment an APTES-coated AFM cantilever was used. The different phases of the experiment are depicted: PBS, bacteria in PBS, bacteria in LB and exposure to ampicillin.
# [4] = test system: Escherichia coli; assay: Antibiotic sensitivity detection, bacteria adsorbed on cantilever; type: cell-based; settings: FIG. 8
# Excerpt: Motile bacteria (Escherichia coli), resistant to kanamycin but sensitive to ampicillin, were adsorbed to both sides of a cantilever. The bacteria were successively exposed to both antibiotics to determine the impact on the bacterial motion/viability (see FIG. 7).
# In these experiments the cantilever was introduced in the analysis chamber and exposed to a solution containing bacteria that eventually attached to its surface. The system was then exposed to: 1) nutriment depleted buffer, 2) nutriment solution (Lysogeny broth (LB)), 3) kanamycin-enriched LB solution 4) LB solution 5) ampicillins-enriched LB solution and, finally, 6) LB solution.
# The experiment was performed using an APTES-coated AFM cantilever. The different phases of the experiment are depicted: PBS, bacteria in PBS, bacteria in LB, exposure to kanamycin, washing with LB, exposure to ampicillin, washing with LB.
smiles,measurement,setting,value
Nc1ncnc2c1ncn2[C@@H]1O[C@H](COP(=O)(O)OP(=O)(O)OP(=O)(O)O)[C@@H](O)[C@H]1O [ATP],variance of the cantilever fluctuations,"[1]; 0.02 mM ATP, compared to ATP depleted buffer or aclarubicin, FIG. 4",significantly higher
same,conformational changes induced on TopoII (cantilever fluctuation variance),"[1]; 0.02 mM, 0.2 mM, 2 mM ATP, FIG. 5",dependent on its concentration
same,cantilever fluctuation variance,[2],significant increase
CC[C@@]1(O)C[C@H](O[C@H]2C[C@H](N(C)C)[C@H](O[C@H]3C[C@H](O)[C@H](O[C@H]4CCC(=O)[C@H](C)O4)[C@H](C)O3)[C@H](C)O2)c2c(cc3c(c2O)C(=O)c2c(O)cccc2C3=O)[C@H]1C(=O)OC [aclarubicin],TopoII conformational state (cantilever fluctuation),"[1]; 0.02 mM ATP plus 100 μM aclarubicin, FIG. 4",again in equilibrium
CC1(C)S[C@@H]2[C@H](NC(=O)[C@H](N)c3ccccc3)C(=O)N2[C@H]1C(=O)O [ampicillin],internal movements of bacteria (cantilever motion),[3],decreased dramatically
same,bacterial motion (cantilever fluctuations),"[4]; antibiotic-enriched LB solution, E. coli resistant to kanamycin, sensitive to ampicillin",dramatically decreased
same,bacterial motion after washing with LB solution,"[4]; step 6, LB solution after ampicillin exposure",remained at the same value
